The values below come from PubChem BioAssay AID1648 (Sanford-Burnham Center for Chemical Genomics, 2009).

The source made the active and inactive calls. No rule for the calls is given here.

This assay deals with Serine/threonine-protein kinase mTOR (Homo sapiens) (UniProt P42345). Nature of the assay: binders of mTOR FRB domain, biophysical, NMR (AID 1648). Particulars: NMR binding to FRB domain, chemical shift.
Serine/threonine-protein kinase mTOR (Homo sapiens), sequence (P42345 2015-2114): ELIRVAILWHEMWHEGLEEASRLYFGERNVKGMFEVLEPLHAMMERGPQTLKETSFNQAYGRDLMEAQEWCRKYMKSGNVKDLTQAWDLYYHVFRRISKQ
With `Cn1c(SCC(N)=O)nnc1-c1c[nH]c2ccccc12`, the Kd was > 4 mM (inactive).
Take `Cc1cc(C(=O)Nc2cccnc2)no1`: the Kd was > 4 mM (inactive).
As for `COC(=O)c1sccc1S(=O)(=O)N1CCCC1`, the Kd was > 4 mM (inactive).
`Cc1ccc(C)n1CCN1CCNCC1`: the Kd was > 4 mM (inactive).
Take `CN1CCC(=NNC(=O)c2ccco2)CC1`: the Kd was > 4 mM (inactive).
As to `COc1ccc([C@H]2Oc3c(I)c(OC)cc(OC)c3C[C@@H]2O)cc1OC`, the Kd was > 4 mM (inactive).
Turning to `O=C(O)c1cc(O)c(O)c(O)c1`, the Kd is > 4 mM (inactive).
Under `CNCc1ccco1` stands > 4 mM (inactive).
Turning to `O=c1cc(-c2ccccc2)oc2c(O)c(O)ccc12`, the Kd is > 4 mM (inactive).
Consider `Cc1nn2c(-c3ccncc3)nnc2c2ccccc12`, for which the Kd is > 4 mM (inactive).
The result for `CC(C)(C)c1ccc(SCC(N)=O)cc1` reads > 4 mM (inactive); that for `COC[C@]12CN(C=O)C3[C@@H]4[C@H](OC)C1[C@]3(C1CC3(O)C(OC)C(O)C4(OC(C)=O)C1C3OC(=O)c1ccccc1)[C@@H](OC)C[C@H]2O` (stereo partly specified), > 4 mM (inactive).
As to `CC1(C)C(=O)C=C[C@@]2(C)C1=C(O)C(=O)[C@]1(C)C2CC[C@@]2(C)[C@H](c3ccoc3)C[C@H]3O[C@]321` (stereo partly specified), the Kd is > 4 mM (inactive).
The result for `Cc1cc(C)c(C(N)=O)c(=S)[nH]1` reads > 4 mM (inactive); that for `NC(=O)C1CCN(C2CC(=O)NC2=O)CC1` (stereo unspecified), > 4 mM (inactive).
Regarding `Nc1cccc2nsnc12`, the Kd was > 4 mM (inactive).
`Nc1cc(=O)[nH]c(=S)n1CCc1ccccc1`: the Kd is > 4 mM (inactive).
Under `COC(=O)c1ccc(N2CCOCC2)nc1` stands > 4 mM (inactive).
As to `Nc1ccc(S(=O)(=O)Nc2nccs2)cc1`, the Kd was > 4 mM (inactive).
Under `OCC1COc2ccccc2O1` (stereo unspecified) stands > 4 mM (inactive).
For the compound `Cc1ccc(CO)o1`, the Kd is > 4 mM (inactive).
For `CC(C)CCCC(C)C1CCC2C3=CC[C@H]4C[C@@H](O)CC[C@]4(C)C3CC[C@@]21C` (stereo partly specified), the Kd is > 4 mM (inactive).
`C=C(C)C1Cc2c(ccc(C(=O)O)c2O)O1` (stereo unspecified): the Kd was > 4 mM (inactive).
`Cc1cc(C(=O)O)n[nH]1`: the Kd is > 4 mM (inactive).
Turning to `COc1cccc(/C=C2/SC(N)=NC2=O)c1`, the Kd is > 4 mM (inactive).
In the case of `CC(C)=CC(=O)Nc1ccccc1Br`, the Kd is > 4 mM (inactive).
For `CC(C)c1ccc(NC(=O)C(N)=O)cc1`, the Kd was > 4 mM (inactive).
Under `O=C(Cc1cccs1)Nc1ccccn1` stands > 4 mM (inactive); under `COc1ccc(NC(=O)c2ccc[n+]([O-])c2)cc1`, > 4 mM (inactive); under `CC(=O)c1c(C)nc(C)nc1NC(=O)C(C)C`, > 4 mM (inactive).
For the compound `Nc1nc(SCC(=O)c2ccc([N+](=O)[O-])cc2)n[nH]1`, the Kd was > 4 mM (inactive).
The result for `CS(=O)(=O)Cc1ccccc1` reads > 4 mM (inactive); that for `OCc1nccn1Cc1ccccc1`, > 4 mM (inactive); that for `NC1=NC(=O)/C(=C/c2ccccc2[N+](=O)[O-])S1`, > 4 mM (inactive).
Consider `Nc1ncnc2nc(SCCN3CCCCC3)[nH]c12`, for which the Kd is > 4 mM (inactive).
Under `COc1ccc2nc(NC(=O)c3cnccn3)sc2c1` stands > 4 mM (inactive); under `O=C(NC(=S)NC1CCSC1=O)c1ccco1` (stereo unspecified), > 4 mM (inactive).
On to `CN1CCN(C(=O)Nc2cccc3ccccc23)CC1`, for which the Kd is > 4 mM (inactive).
With `Nc1c(/C=C2\C=Nc3ccccc32)c(=O)nc2scnn12`, the Kd is > 4 mM (inactive).
On to `CC(=O)O[C@@H]1CC2C(C)(CC[C@H](O)C2(C)C)C2CC[C@]3(C)C(=CC(=O)O[C@H]3c3ccoc3)C21C` (stereo partly specified), for which the Kd is > 4 mM (inactive).
The result for `CCC(=O)NC(=S)Nc1ccc(O)cc1` reads > 4 mM (inactive); that for `O=C(Nc1cnccn1)c1cccnc1`, > 4 mM (inactive).
On to `CN1CCC(N2CCCC(C(N)=O)C2)CC1` (stereo unspecified), for which the Kd was > 4 mM (inactive).
Turning to `CN(C)C(=O)C12CCC(C)(C(=O)O1)C2(C)C` (stereo unspecified), the Kd was > 4 mM (inactive).
Turning to `CCOc1cccc(C(=O)c2ccc(O)c(O)c2O)c1`, the Kd was > 4 mM (inactive).
Consider `CC(CC(=O)NN)C1(O)CCCCC1` (stereo unspecified), for which the Kd is > 4 mM (inactive).
Take `O=C(c1ccccc1-c1ccccc1)N1CCOCC1`: the Kd is > 4 mM (inactive).
The result for `COc1cccc(/C=N/N=C2/NC(=O)CS2)c1` reads > 4 mM (inactive).
On to `Cc1ccc(/C=N/NC(N)=O)o1`, for which the Kd was > 4 mM (inactive).
Turning to `OC(CCl)c1ccc(-n2cncn2)cc1` (stereo unspecified), the Kd was > 4 mM (inactive).
The result for `CN(C)c1nc(N2CCOCC2)nc(N2CCOCC2)n1` reads > 4 mM (inactive); that for `Cc1nnc(Nc2cccnc2)[nH]c1=O`, > 4 mM (inactive); that for `CC(=O)NC1=NN(c2ccccc2)C(=O)C1`, > 4 mM (inactive).
The result for `O=C(CN1C(=O)c2cccc3cccc(c23)C1=O)NO` reads > 4 mM (inactive); that for `C[C@H]1O[C@@H](O[C@H]2[C@@H](O)C[C@H](O[C@H]3[C@@H](O)C[C@H](O[C@H]4CC[C@]5(C)C6C[C@@H](O)[C@]7(C)[C@@H](C8=CC(=O)OC8)CC[C@]7(O)C6CC[C@@H]5C4)O[C@@H]3C)O[C@@H]2C)C[C@H](O)[C@@H]1O` (stereo partly specified), > 4 mM (inactive); that for `CC(=O)Oc1c(-c2ccccc2)oc2c(CC=C(C)C)c3c(c(OC(C)=O)c2c1=O)C=CC(C)(C)O3`, > 4 mM (inactive).
Turning to `COc1ccc(C(=O)O)cc1OC`, the Kd is > 4 mM (inactive).
On to `O=C(c1ccco1)N1CCN(c2ccc(Cl)cc2)CC1`, for which the Kd was > 4 mM (inactive).
Take `O=C1CN(C(=O)CN2CCOCC2)c2ccccc2N1`: the Kd is > 4 mM (inactive).
Consider `O=C(O)CNC(=O)c1ccccc1Cl`, for which the Kd was > 4 mM (inactive).
Turning to `O=C(NN1CCOCC1)c1cccs1`, the Kd is > 4 mM (inactive).
The result for `Cc1c(/C=N\n2cnnc2)c2ccccc2n1C` reads > 4 mM (inactive); that for `O=C(O)CSCC(=O)Nc1cccc(O)c1`, > 4 mM (inactive).
Regarding `CCOC(=O)c1cnn2ccccc12`, the Kd is > 4 mM (inactive).
`C[C@H]1C(=O)CCC2[C@]3(C)CC[C@@]4(C)C5CC(C)(C)CC[C@]5(C)CC[C@]4(C)C3CC[C@@]21C` (stereo partly specified): the Kd is > 4 mM (inactive).
For `C/C=C(\C)c1nnc(NC(=O)c2ccco2)s1`, the Kd is > 4 mM (inactive).
Take `C=CCn1c(=S)[nH]c2ccc(Br)cc2c1=O`: the Kd was > 4 mM (inactive).
Take `O=C(CSC1=NCCS1)N1CCc2ccccc21`: the Kd was > 4 mM (inactive).
With `Cn1cnc([N+](=O)[O-])c1Sc1ncnc2nc[nH]c12`, the Kd is > 4 mM (inactive).
With `O=C(NCc1ccccc1)c1cnsn1`, the Kd is > 4 mM (inactive).
Consider `COc1cc(C(C)=O)ccc1OCC(O)Cn1ccnc1` (stereo unspecified), for which the Kd was > 4 mM (inactive).
As to `NC(=O)Cc1nc2ccccc2[nH]1`, the Kd is > 4 mM (inactive).
For `CC(=O)Nc1cnn(Cc2ccc(Br)cc2)c1`, the Kd was > 4 mM (inactive).
`Nc1cccc(-n2cccc2)c1`: the Kd is > 4 mM (inactive).
On to `Cc1nc(-c2cc(CO)no2)cs1`, for which the Kd is > 4 mM (inactive).
As to `NC(=O)c1ccc(C(N)=O)c(-c2ccccc2)c1`, the Kd is > 4 mM (inactive).
Under `O=C(CN1CCOCC1)Nc1cccc(Br)c1` stands > 4 mM (inactive); under `O=c1c(-c2cccs2)[n+]([O-])c2ccccc2n1O`, > 4 mM (inactive); under `COC(=O)c1ccc(C(=S)N2CCOCC2)cc1`, > 4 mM (inactive).
In the case of `CCNC(=S)N1CCC(C(N)=O)CC1`, the Kd is > 4 mM (inactive).
As for `COC(=O)c1c(OC)cc2c(c1C)Oc1c(Cl)c(O)c(Cl)c(C)c1C(=O)O2`, the Kd was > 4 mM (inactive).
On to `COc1cc2c(cc1OC)[C@@H]1C(=O)c3ccc4oc(C(C)C)cc4c3O[C@@H]1CO2`, for which the Kd is > 4 mM (inactive).
Under `CC(=O)NC(NC(C)=O)c1ccccc1` stands > 4 mM (inactive).
Regarding `N/N=C1\CCCc2c1no[n+]2[O-]`, the Kd is > 4 mM (inactive).
Turning to `Cc1nc(SCC#N)c2c(C)c(C)sc2n1`, the Kd is > 4 mM (inactive).
`O=C(O)c1ccc2snnc2c1`: the Kd is > 4 mM (inactive).
On to `COc1ccc(/C=C2\NC(=S)N(C)C2=O)cc1O`, for which the Kd is > 4 mM (inactive).
As to `Cc1nc(N2CCOCC2)[nH]c(=O)c1C`, the Kd was > 4 mM (inactive).
Turning to `O=C(Nc1ccc(O)cc1)N1CCOCC1`, the Kd is > 4 mM (inactive).
For `C/C=C1\[C@H]2C=C(C)C[C@]1(N)c1ccc(=O)[nH]c1C2`, the Kd is > 4 mM (inactive).
As to `OCc1ccncc1`, the Kd was > 4 mM (inactive).
Under `CC1(C)CC2C1CCC1(C)OC1CCC2(C)O` (stereo unspecified) stands > 4 mM (inactive).
Turning to `Cc1ccc(S(=O)(=O)CCc2ccccn2)cc1`, the Kd is > 4 mM (inactive).
For the compound `CN1C(=O)C(Cc2c[nH]c3ccccc23)C(=O)N(C)C1=O`, the Kd is > 4 mM (inactive).
Regarding `C/C1=C\CCC(=O)C2CC(C)(C)C2CC1` (stereo unspecified), the Kd is > 4 mM (inactive).
As for `O=c1[nH]c2sc3c(c2c2ncnn12)CCCC3`, the Kd is > 4 mM (inactive).
Regarding `CC1(C)CC[C@]2(C)CC[C@]3(C)C(=CCC4[C@@]5(C)CC[C@H](O)C(C)(C)C5CC[C@]43C)C2C1` (stereo partly specified), the Kd is > 4 mM (inactive).
As for `CSc1nnc(-c2ccccc2NC(C)=O)o1`, the Kd was > 4 mM (inactive).
Turning to `CC(=O)c1ccc(CC2SC(N)=NC2=O)cc1` (stereo unspecified), the Kd is > 4 mM (inactive).
On to `COc1ccc(C2CC(=O)c3ccc(OC)cc3O2)cc1` (stereo unspecified), for which the Kd was > 4 mM (inactive).
Turning to `O=S1(=O)CCC2CC=CCC21` (stereo unspecified), the Kd is > 4 mM (inactive).

One may read the Kd as the constant that tells how readily two partners part at equilibrium.
